Literature values in patent US20210356455A1, “SCREENING AGENTS CAPABLE OF INHIBITING PAIN AND/OR PRURITUS AND METHODS AND COMPOSITIONS FOR TREATING PAIN AND/OR PRURITUS USING SAID AGENTS” (President and Fellows of Harvard College, priority 2020, published 2021).

Columns and labels:
[1] = molecular target: T1, Mrgpra3 (Mas-related G-protein coupled receptor member A3) (Mus musculus, UniProt Q91WW3)
T1 sequence (Q91WW3 1-302): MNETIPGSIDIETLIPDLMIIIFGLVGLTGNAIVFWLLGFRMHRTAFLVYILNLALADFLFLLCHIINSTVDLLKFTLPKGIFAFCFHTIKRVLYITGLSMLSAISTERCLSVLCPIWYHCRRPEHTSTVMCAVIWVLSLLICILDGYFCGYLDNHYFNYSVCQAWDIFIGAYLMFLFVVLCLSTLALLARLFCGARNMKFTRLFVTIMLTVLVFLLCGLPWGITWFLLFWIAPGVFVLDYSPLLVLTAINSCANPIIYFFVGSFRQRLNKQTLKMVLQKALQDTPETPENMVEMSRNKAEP

[2] = molecular target: T2, Mrgprd (MAS Related GPR Family Member D) (Homo sapiens, UniProt Q8TDS7); conditions: cells expressing the receptor
[3] = molecular target: T2, Mrgprd (MAS Related GPR Family Member D); conditions: micromolar doses; cells expressing the receptor
[4] = molecular target: Ntsr2 (Neurotensin Receptor 2) (Homo sapiens, UniProt O95665); conditions: binding and pharmacological studies
Sequence of Ntsr2 (Neurotensin Receptor 2) (O95665 whole entry, species assumed): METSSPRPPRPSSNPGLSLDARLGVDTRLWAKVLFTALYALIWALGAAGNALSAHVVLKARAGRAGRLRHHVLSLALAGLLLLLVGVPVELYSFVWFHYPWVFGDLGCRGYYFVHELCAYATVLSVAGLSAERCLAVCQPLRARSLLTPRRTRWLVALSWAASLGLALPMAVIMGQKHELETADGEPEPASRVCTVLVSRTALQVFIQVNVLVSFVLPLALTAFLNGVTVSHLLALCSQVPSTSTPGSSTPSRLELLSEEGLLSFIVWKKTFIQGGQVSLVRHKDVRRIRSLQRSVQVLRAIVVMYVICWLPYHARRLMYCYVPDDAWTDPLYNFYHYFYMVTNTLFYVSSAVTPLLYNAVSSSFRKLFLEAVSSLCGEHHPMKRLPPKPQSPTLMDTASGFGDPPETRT

T2 sequence (Q8TDS7 whole entry, species assumed): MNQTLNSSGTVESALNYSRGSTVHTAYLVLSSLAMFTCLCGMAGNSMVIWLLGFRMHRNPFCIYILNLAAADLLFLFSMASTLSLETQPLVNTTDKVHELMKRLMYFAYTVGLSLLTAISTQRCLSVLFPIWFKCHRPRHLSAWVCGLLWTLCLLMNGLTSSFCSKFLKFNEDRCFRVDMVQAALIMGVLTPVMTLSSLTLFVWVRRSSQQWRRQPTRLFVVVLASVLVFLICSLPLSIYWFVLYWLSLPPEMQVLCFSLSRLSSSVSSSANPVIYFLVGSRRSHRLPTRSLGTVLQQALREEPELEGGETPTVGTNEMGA

SMILES: CCN(CC)CCCC(C)Nc1ccnc2cc(Cl)ccc12 (stereo not shown) [chloroquine]
- receptor activation [1]: Activated

SMILES: NCCC(=O)O [Beta-alanine, beta-alanine]
- forskolin-stimulated cAMP production [2]: decreases forskolin-stimulated cAMP production
- Ca(2+) influx [3]: specifically evoked Ca(2+) influx

SMILES: C[C@@H]1CN([C@H]2CC[C@](C#N)(c3ccc(F)cc3)CC2)CC[C@]1(C(=O)O)c1ccccc1 [levocabastine]
- affinity for the receptor [4]: high affinity
